In US10022354B2, “Pyrrolidine amide compounds as histone demethylase inhibitors” (GENENTECH, INC., priority 2014, dated 2018):

Assays:
[1] = test system: H3K4Me3 mark level in PC9 cells; assay: KDM5 Cell Assay (H3K4Me3 mark level, PC9 HTRF); format: cell-based; conditions: Homo sapiens, PC-9, 120 hours at 37° C.
Description: PC9 cells were seeded in a 384 well plate (2000 cells/well) with a test compound and incubated for 120 hours at 37° C. H3K4Me3 mark level was assessed using HTRF reagents from CisBio. Briefly, media was removed and cells were lysed in 20 μL of Epigeneous Cell Histone lysis buffer C for 45 min at 26° C., shaking. 10 μL of 4 μg/mL acceptor antibody (H3K4me3-d2) and 10 μL of 1.2 μg/mL donor antibody (Total H3-K) in Cell Histone detection buffer were added and the mixture was incubated at 26° C. for 1 hour. Assay plate was read subsequently on Envision (Perkin Elmer). Each compound was run in duplicate. Data were normalized to DMSO treated wells as the low response and EC50's were calculate using a four-parameter fit.

[2] = target: full length KDM5A enzyme (Homo sapiens (Human), UniProt P29375); assay: KDM5 Enzyme Assay (KDM5A HTRF); format: biochemical; conditions: 2 nM full length KDM5A, 100 nM H3K4Me3 peptide, 1 uM 2-OG, 30 min room temperature
Outline: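 KDM5A demethylase activity was assessed by HTRF using in-house expressed and purified full length human KDM5A at 2 nM with 100 nM biotinylated H3K4Me3 peptide and 1 uM 2-OG. The 10 uL reaction also held 100 uM Fe^2+, 500 uM ascorbate, 50 mM HEPES pH 7.0, 0.01% Triton-X 100, 2 mM DTT and 0.25% DMSO. Detection used Eu-labeled H3K4me1-2 antibody and streptavidin-XL665, read on an Envision reader.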

full length KDM5A enzyme, sequence (P29375 whole entry): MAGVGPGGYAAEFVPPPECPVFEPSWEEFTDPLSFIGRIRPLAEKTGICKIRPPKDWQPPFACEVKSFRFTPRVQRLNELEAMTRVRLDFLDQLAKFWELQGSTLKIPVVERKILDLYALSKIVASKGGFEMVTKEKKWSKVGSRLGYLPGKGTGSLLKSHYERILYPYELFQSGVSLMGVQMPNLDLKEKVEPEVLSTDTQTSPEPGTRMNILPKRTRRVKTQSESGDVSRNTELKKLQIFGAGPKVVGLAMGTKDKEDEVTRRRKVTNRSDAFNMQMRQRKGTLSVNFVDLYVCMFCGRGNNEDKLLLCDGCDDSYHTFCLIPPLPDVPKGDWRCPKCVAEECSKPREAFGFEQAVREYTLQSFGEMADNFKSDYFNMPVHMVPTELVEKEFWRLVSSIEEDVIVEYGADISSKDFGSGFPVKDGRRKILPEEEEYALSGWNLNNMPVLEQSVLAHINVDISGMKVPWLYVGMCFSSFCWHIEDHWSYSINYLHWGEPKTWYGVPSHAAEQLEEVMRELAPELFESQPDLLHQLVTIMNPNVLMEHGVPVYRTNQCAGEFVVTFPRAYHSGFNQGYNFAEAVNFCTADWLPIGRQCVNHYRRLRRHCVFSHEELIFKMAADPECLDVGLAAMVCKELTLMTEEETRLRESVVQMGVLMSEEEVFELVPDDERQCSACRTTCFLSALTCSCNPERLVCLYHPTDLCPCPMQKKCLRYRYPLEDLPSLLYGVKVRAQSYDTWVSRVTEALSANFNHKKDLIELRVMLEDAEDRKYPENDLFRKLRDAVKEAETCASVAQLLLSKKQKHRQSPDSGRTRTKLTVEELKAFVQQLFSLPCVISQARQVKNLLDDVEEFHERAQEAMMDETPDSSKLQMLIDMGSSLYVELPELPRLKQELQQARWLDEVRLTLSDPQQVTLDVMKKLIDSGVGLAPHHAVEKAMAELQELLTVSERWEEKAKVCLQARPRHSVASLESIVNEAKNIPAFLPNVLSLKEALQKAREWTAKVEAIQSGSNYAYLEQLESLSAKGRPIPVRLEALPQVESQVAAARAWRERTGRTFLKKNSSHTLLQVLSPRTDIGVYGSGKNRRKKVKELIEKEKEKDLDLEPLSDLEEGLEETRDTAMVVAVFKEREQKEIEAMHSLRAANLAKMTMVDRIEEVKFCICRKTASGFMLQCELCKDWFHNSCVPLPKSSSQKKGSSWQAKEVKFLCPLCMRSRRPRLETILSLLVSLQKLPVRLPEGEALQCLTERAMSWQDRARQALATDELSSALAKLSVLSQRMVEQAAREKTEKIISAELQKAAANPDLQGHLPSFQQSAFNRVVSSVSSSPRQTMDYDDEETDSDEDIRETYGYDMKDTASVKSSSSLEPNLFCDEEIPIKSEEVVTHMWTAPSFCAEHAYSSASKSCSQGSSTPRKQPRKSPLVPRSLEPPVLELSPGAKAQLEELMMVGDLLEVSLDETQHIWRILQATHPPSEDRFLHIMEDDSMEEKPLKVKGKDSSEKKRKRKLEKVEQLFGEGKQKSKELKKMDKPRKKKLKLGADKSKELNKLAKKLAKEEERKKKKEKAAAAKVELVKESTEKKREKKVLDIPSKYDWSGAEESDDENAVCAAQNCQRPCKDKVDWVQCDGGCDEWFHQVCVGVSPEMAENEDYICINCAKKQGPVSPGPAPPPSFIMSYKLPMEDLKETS

SMILES	EC50 [1] [pM]	IC50 [2] [pM]
CC(CCCc1ccccc1)c1cc(C(=O)N2CCC(NC(=O)C3CC3)C2)n[nH]1 (centres unmarked) [Example 22, N-(1-(5-(5-phenylpentan-2-yl)-1H-pyrazole-3-carbonyl)pyrrolidin-3-yl) cyclopropanecarboxamide]	11000	120
Cc1cccn(C2CCN(C(=O)c3cc(C(C)C)n[nH]3)C2)c1=O (centres unmarked) [Example 40, 1-(1-(3-Isopropyl-1H-pyrazole-5-carbonyl)pyrrolidin-3-yl)-3-methylpyridin-2(1H)-one]	3700	58
CC(C)c1cc(C(=O)N2CC[C@@H](n3cccc(C4CC4)c3=O)C2)[nH]n1 [Example 41, (R)-3-cyclopropyl-1-(1-(3-isopropyl-1H-pyrazole-5-carbonyl)pyrrolidin-3-yl)pyridin-2(1H)-one]	6800	51
CC(C)c1cc(C(=O)N2CCC(n3cc(Br)cn3)C2)[nH]n1 (centres unmarked) [Example 59]	30000	740
CC(C)c1cc(C(=O)N2CC[C@H](NC(=O)c3ccccc3)C2)[nH]n1 [Example 117]	8200	77
CC(C)c1cc(C(=O)N2CCC(NC(=O)C3(C)CC3)C2)[nH]n1 (centres unmarked) [Example 128]	4400	59
CC(C)c1cc(C(=O)N2CCC(NC(=O)C3(C)CCC3)C2)[nH]n1 (centres unmarked) [Example 134]	6400	71
CC(C)c1cc(C(=O)N2CCC(NC(=O)c3ccc4cc[nH]c4n3)C2)[nH]n1 (centres unmarked) [Example 135]	4900	76
CC(C)c1cc(C(=O)N2CCC(NC(=O)c3ccccc3OCc3ccccc3)C2)[nH]n1 (centres unmarked) [Example 136]	2500	54
CCC1(C(=O)NC2CCN(C(=O)c3cc(C(C)C)n[nH]3)C2)CC1 (centres unmarked) [Example 141]	6500	140
CC(C)c1cc(C(=O)N2CCC(NC(=O)C3(O)CC3)C2)[nH]n1 (centres unmarked) [Example 171]	8600	200
CC(C)c1cc(C(=O)N2CC[C@@H](NC(=O)c3ccccc3)C2)[nH]n1 [Example 183]	4800	–
Cn1cnc(C(=O)N2CCC(NC(=O)C3CC3)C2)c1 (centres unmarked) [Example 204]	–	2200
O=C(NC1CCN(C(=O)c2cc(C3CCCCC3)n[nH]2)C1)C1CC1 (centres unmarked) [Example 207]	–	420
Nc1cc(C(=O)N2CCC(NC(=O)C3CC3)C2)[nH]n1 (centres unmarked) [Example 209]	–	17000
O=C(NC1CCN(C(=O)c2cc(C3CCC3)n[nH]2)C1)C1CC1 (centres unmarked) [Example 210]	6700	160
COC(C)c1cc(C(=O)N2CCC(NC(=O)C3CC3)C2)[nH]n1 (centres unmarked) [Example 211]	–	2600
CC(CCc1ccccc1)c1cc(C(=O)N2CCC(NC(=O)C3CC3)C2)[nH]n1 (centres unmarked) [Example 212]	11000	120
CCCCc1cc(C(=O)N2CCC(NC(=O)C3CC3)C2)[nH]n1 (centres unmarked) [Example 213]	–	810

SMILES	EC50 [1] [pM]	IC50 [2] [pM]
O=C(NC1CCN(C(=O)c2cc(CCc3ccccc3)n[nH]2)C1)C1CC1 (centres unmarked) [Example 214]	–	2700
CC(NC(=O)CO)c1cc(C(=O)N2CCC(NC(=O)C3CC3)C2)n[nH]1 (centres unmarked) [Example 217]	–	3200
CC(C)c1cc(C(=O)N2C[C@H](NC(=O)C3CC3)[C@@H](O)C2)[nH]n1 [Example 219]	1800	46
CC(C)c1cc(C(=O)N2CC[C@@H](NC(=O)C3(F)CC3)C2)[nH]n1 [Example 221]	2100	51
CC(C)c1cc(C(=O)N2CC[C@@H](NC(=O)C3CCO3)C2)[nH]n1 (some centres unmarked) [Example 223]	–	360
CC(C)c1cc(C(=O)N2CC[C@@H](NC(=O)C3(C)CC3)C2)[nH]n1 [Example 224]	1400	74
CC(C)c1cc(C(=O)N2CC[C@H](NC(=O)C3(C)CC3)C2)[nH]n1 [Example 225]	14000	110
CC(C)c1cc(C(=O)N2CC[C@@H](NC(=O)C3(C#N)CC3)C2)[nH]n1 [Example 226]	–	230
CC(C)c1cc(C(=O)N2CC[C@@H](NC(=O)C3CC34CC4)C2)[nH]n1 (some centres unmarked) [Example 228]	1100	78
CC(C)c1cc(C(=O)N2CC[C@H](NC(=O)[C@@H]3C[C@@H]3F)C2)[nH]n1 [Example 229]	–	110
CC(C)c1cc(C(=O)N2CC[C@H](NC(=O)[C@H]3C[C@H]3F)C2)[nH]n1 [Example 230]	–	140
CC(C)c1cc(C(=O)N2CC[C@@H](NC(=O)[C@H]3C[C@@H]3F)C2)[nH]n1 [Example 231]	–	330
Cc1cc(C)n(C2CCN(C(=O)c3cc(C(C)C)n[nH]3)C2)n1 (centres unmarked) [Example 233]	–	12000
CC(C)c1cc(C(=O)N2CCC(n3cc4c(n3)CCC4)C2)[nH]n1 (centres unmarked) [Example 235]	–	340
Cc1nn(C2CCN(C(=O)c3cc(C(C)C)n[nH]3)C2)cc1-c1ccccc1 (centres unmarked) [Example 236]	–	320
Cc1nn(C2CCN(C(=O)c3cc(C(C)C)n[nH]3)C2)cc1Br (centres unmarked) [Example 237]	–	360
CC(C)c1cc(C(=O)N2CCC(n3cc(Br)c(C#N)n3)C2)[nH]n1 (centres unmarked) [Example 240]	–	2100
CC(C)c1cc(C(=O)N2CC[C@@H](n3ncc4ccccc43)C2)[nH]n1 [Example 243]	–	920
CC(C)c1cc(C(=O)N2CCC(n3ncc4c(F)cc(Br)cc43)C2)[nH]n1 (centres unmarked) [Example 245]	–	910

Continued, values first:

EC50 [1] [pM]	IC50 [2] [pM]	SMILES
23000	570	CC(C)c1cc(C(=O)N2CCC(c3cc(-c4cnn(C)c4)ccn3)C2)[nH]n1 (centres unmarked) [Example 12, (3-Isopropyl-1H-pyrazol-5-yl)(3-(4-(1-methyl-1H-pyrazol-4-yl)pyridin-2-yl)pyrrolidin-1-yl) Methanone]
26000	210	CC(C)n1cnc(C(=O)N2CCC(NC(=O)C3CC3)C2)c1 (centres unmarked) [Example 19, N-(1-(1-isopropyl-1H-imidazole-4-carbonyl)pyrrolidin-3-yl)cyclopropanecarboxamide]
930	49	CC(C)c1cc(C(=O)N2CC[C@@H](NC(=O)C3CC3)C2)[nH]n1 [Example 29, (R)—N-(1-(3-isopropyl-1H-pyrazole-5-carbonyl)pyrrolidin-3-yl)cyclopropane Carboxamide]
15000	140	CC(C)c1cc(C(=O)N2CCC(N3Cc4ccccc4C3=O)C2)[nH]n1 (centres unmarked) [Example 30, 2-(1-(3-Isopropyl-1H-pyrazole-5-carbonyl)pyrrolidin-3-yl)isoindolin-1-one]
3300	87	CC(C)c1cc(C(=O)N2CCC(NC(=O)NC3CC3)C2)[nH]n1 (centres unmarked) [Example 33, 1-Cyclopropyl-3-(1-(3-isopropyl-1H-pyrazole-5-carbonyl)pyrrolidin-3-yl)urea]
2300	58	CNC(=O)NC1CCN(C(=O)c2cc(C(C)C)n[nH]2)C1 (centres unmarked) [Example 34, 1-(1-(3-Isopropyl-1H-pyrazole-5-carbonyl)pyrrolidin-3-yl)-3-methylurea]
15000	110	Cc1cc(-c2cnn(Cc3ccccc3)c2)cc(C2CCN(C(=O)c3cc(C(C)C)n[nH]3)C2)n1 (centres unmarked) [Example 69]
1700	–	CC(C)c1cc(C(=O)N2CCC(NC(=O)C3CC3)C2)[nH]n1 (centres unmarked) [Example 151]
3200	65	CCCOc1ccccc1C(=O)NC1CCN(C(=O)c2cc(C(C)C)n[nH]2)C1 (centres unmarked) [Example 180]
–	1500	CC(C)c1cc(C(=O)N2CCC(N3CCc4ccccc4C3=O)C2)[nH]n1 (centres unmarked) [Example 202]
–	6200	O=C(NC1CCN(C(=O)c2c[nH]cn2)C1)C1CC1 (centres unmarked) [Example 203]
–	14000	O=C(NC1CCN(C(=O)c2cc(Br)n[nH]2)C1)C1CC1 (centres unmarked) [Example 205]
–	300	CC(C)Cc1cc(C(=O)N2CCC(NC(=O)C3CC3)C2)[nH]n1 (centres unmarked) [Example 206]
–	190	O=C(NC1CCN(C(=O)c2cc(C3CC3)n[nH]2)C1)C1CC1 (centres unmarked) [Example 208]
–	230	O=C(NC1CCN(C(=O)c2cc(C3CCCC3)n[nH]2)C1)C1CC1 (centres unmarked) [Example 215]
–	6600	CC(=O)NC(C)c1cc(C(=O)N2CCC(NC(=O)C3CC3)C2)n[nH]1 (centres unmarked) [Example 216]
1700	50	CC(C)c1cc(C(=O)N2C[C@H](NC(=O)C3CC3)[C@@H](F)C2)[nH]n1 [Example 218]
2500	160	CC(C)c1cc(C(=O)N2C[C@H](NC(=O)C3CC3)C3(CC3)C2)[nH]n1 [Example 220]
1300	25	CC(C)c1cc(C(=O)N2CC[C@@H](NC(=O)[C@H]3C[C@H]3F)C2)[nH]n1 [Example 222]
–	240	CC(C)c1cc(C(=O)N2CC[C@@H](NC(=O)CC#N)C2)[nH]n1 [Example 227]
5000	140	CC(C)c1cc(C(=O)N2CC[C@@H](NC(=O)[C@@H]3C[C@H]3F)C2)[nH]n1 [Example 232]
–	350	CC(C)c1cc(C(=O)N2CCC(n3cc(Br)c(C(F)F)n3)C2)[nH]n1 (centres unmarked) [Example 239]
–	350	CC(C)c1cc(C(=O)N2CC[C@@H](n3cc4ccccc4n3)C2)[nH]n1 [Example 242]
–	430	CC(C)c1cc(C(=O)N2CC[C@@H](n3cc4c(F)cccc4n3)C2)[nH]n1 [Example 247]
